Assay results from US20230227838A1, “ENHANCED CELL SURVIVAL AGAINST BIOTIC AND ABIOTIC STRESSES THROUGH SALICYLICK ACID-INDUCED NPR1 CONDENSATES” (priority 2020, published 2023).

What was measured:
[1] = tested on: cell death triggered by in planta expression of the effector, AvrRpt2; conditions: SA treatment before dexamethasone induction
Protocol: (§1) Chemical treatment, pathogen infection and cell death assays. For soil-grown Arabidopsis plants, SA treatment was carried out with spray at indicated concentrations. For seedlings grown vertically on solid 1/2 MS medium for 10-12 days, SA […] treatment (1 mM), with or without the proteasome inhibitor MG132 (50 μM), and protein synthesis […] inhibitor cycloheximide (100 μM) was done by submerging them in solutions for indicated periods. Unless otherwise stated, in N. benthamiana, SA treatment was done by infiltrating leaves 24 hr after agroinfiltration. SA pre-treatment of mature Arabidopsis was done by spray 24 hr before bacterial infection or cell death induction. For bacterial infections, Pseudomonas syringae pv. maculicola ES4326 carrying AvrRpt2 or AvrRpm1 effectors, and Pf Pf0-1 carrying functional AvrRps4 or non-functional AvrRps4KRVY-AAAA effectors were grown for 2 days on solid King's B medium supplemented with appropriate antibiotics. […] Bacteria were pressure infiltrated into mature leaves of three-week-old Arabidopsis plants and cell death or bacterial growth were assessed at indicated times post inoculation (hpi, hours post inoculation; dpi, days post inoculation). […]

[2] = tested on: cell death induced by heat shock, oxidative and DNA damage stresses; conditions: 1 mM SA 24 hr before stress; WT, not in npr1-2
Protocol: as §1

[3] = tested on: Psm ES4326/AvrRpt2-mediated cell death; experiment: Cell death (conductivity/electrolyte leakage, trypan blue) after Psm ES4326/AvrRpt2 inoculation; type: in vivo, Arabidopsis thaliana; conditions: SA pretreatment at 0.5 and 1 mM; WT plants, not in npr1-2 mutant
Protocol: Chemical treatment, pathogen infection and cell death assays. […] At 2 days, the bacterial colonies were scored.
Trypan blue staining. Leaves of three-week-old Arabidopsis infected with Psm ES4326/AvrRpt2 were sampled at 1 dpi, boiled in 95% ethanol until completely bleached, followed by boiling for 3 min in a 1:1 mixture of 95% ethanol and staining solution (10 ml lactic acid, 10 ml glycerol, 10 g phenol and 10 mg trypan blue, dissolved in 10 ml DDW). The leaves were then de-stained in 2.5 g/ml chloral hydrate solution and transferred to 70% glycerol for subsequent imaging.

O=C(O)c1ccccc1O [SA, salicylic acid]
cell death triggered by in planta expression of AvrRpt2 [1]: protect against cell death
cell death induced by heat shock, oxidative and DNA damage stresses [2]: significantly suppressed cell death
Psm ES4326/AvrRpt2-mediated cell death [3]: fully suppress
